From publication PMC9972480, “Synthesis of Quinoline and Dihydroquinoline Embelin Derivatives as Cardioprotective Agents” (Journal of Natural Products, 2023)
Where two headings read alike, the source gives them in different places. Marks after values point to notes of the source that are not given here.

How the values were obtained:
J774 macrophages = assay: MTT cell viability assay (cytotoxicity) in J774 macrophages; format: cell-based, murine
Procedure: (§1) The potential cytotoxicity of embelin (1) together with derivatives (4a–4m, 5a–5d, 6a–6m) was tested in cardiomyocytes and macrophages in order to ensure that compounds lack toxicity also in immune cells. Cell viability was determined by the MTT assay.[58] Four dihydroquinoline derivatives (4b, 4f, 4i, and 4m) and six quinoline compounds (6a, 6d, 6e, 6i, 6k, and 6m) maintained higher viable cell rates in both types of cells. IC50 values of these derivatives were higher than 40 μM and were selected for further analysis.
(§2) J774A.1 murine macrophage cells, H9c2 embryonic rat heart-derived cells, and MCF-7 breast cancer cells were purchased from American Type Cell Culture (ATCC, Manassas, VA, USA). Cells were cultured in Dulbecco’s modified Eagle medium with 10% fetal bovine serum and 1% penicillin/streptomycin (Lonza) and were maintained at 37 °C in a humidified incubator containing 5% CO2.
(§3) Cell viability was assessed by conducting an MTT [3-(4,5-dimethylthiazol-2-yl)-2,5-diphenyltetrazolium bromide dye] assay. Briefly, J 774A.1, H9c2, and MCF7 cells were seeded in 96-well plates for 24 h. Then, cells were treated with DOX in the absence or presence of compounds. MTT (Sigma) reagent was added to the medium for 1 h at 37 °C. Then, the formazan was dissolved in dimethyl sulfoxide (DMSO, 100 μL). Absorbance was measured at 540 nm with a microplate reader (BMG Labtech).

H9c2 cardiomyocytes = assay: MTT cell viability assay (cytotoxicity) in H9c2 cardiomyocytes; format: cell-based, rat
Procedure: as §1, §2, §3

[1] = test system: MCF-7 human breast tumor cells; assay: Effect on chemotherapeutic activity of DOX, MTT; format: cell-based; details: MCF-7 cells, compound 20 μM + DOX 1 μM, 24 h
Procedure: Next, cytotoxicity of the selected compounds was also tested in MCF-7 breast cancer cells to disconfirm that protective effects might antagonize the antitumor effects of doxorubicin.
Figure 4 Effects of derivatives 4i, 6a, 6d, 6e, 6k, and 6m on the chemotherapeutic activity of DOX in MCF-7 human breast tumor cells. Cells were co-treated with selected compounds at 20 μM and DOX (1 μM) for 24 h. Cell viability was measured by MTT assay. Results are reported as mean of cell viability ± SD (n = 3). ****p < 0.0001 vs DOX-treated cells.
as §3

ROS in H9c2 cells = assay: Intracellular ROS levels, DCFH-DA assay; format: cell-based, rat; details: for ROS production on co-treatment with DOX: compound 20 μM + DOX 1 μM, 24 h, vs DOX-treated cells
Procedure: Oxidative stress is produced by an imbalance between radical oxygen species (ROS) formation and endogenous antioxidant activation in reaction to cell injury, leading to myocardial toxicity. Accordingly, DOX-induced ROS production in the H9c2 cells was quantified with the DCFH-DA fluorogenic dye. […] No effects on ROS production were observed when compounds were incubated alone with cells. […] The inhibitory effects of embelin derivatives were similar to those induced by N-acetyl-cysteine (NAC), a well-known antioxidant.
Figure 5 Derivatives 4i, 6a, 6d, 6k, and 6m reduced ROS levels produced by DOX in H9c2 cells. Levels of ROS in H9c2 cells were measured fluorometrically after treatment with DOX (1 μM) alone or co-treatment with N-acetyl cysteine (NAC, 1 mM) or selected derivatives (20 μM) for 24 h, using the 2′,7′-dichlorfluorescein-diacetate (DCFH-DA) assay. Values are expressed as mean ± SD with respect to DOX-treated cells (n = 3). ****p < 0.0001 vs DOX-treated cells.
Intracellular ROS levels in H9c2 cells were evaluated by monitoring the oxidation of 2′,7′-dichlorfluorescein-diacetate (DCFH-DA) (Sigma) to fluorescent dichlorofluorescein. Cells were treated with DOX (1 μM) in the absence or presence of compounds or NAC as ROS inhibitor (1 mM) (Sigma). Then, cells were incubated with 10 μM DCFH-DA at 37 °C in the dark for 30 min. ROS level was fluorimetrically evaluated at 485/550 nm during 24 h.

[2] = MTT cell viability assay (cytotoxicity) in J774 macrophages; format: cell-based, murine; details: mouse
Procedure: as §1, §2, §3

[3] = MTT cell viability assay (cytotoxicity) in H9c2 cardiomyocytes; format: cell-based, rat; details: rat, H9c2 cardiomyocytes, 24 h, MTT; for IC50 at 24 h: H9c2 cardiomyocytes (embryonic heart-derived cells), stated for both types of cells; for viability at 24 h, 10 µM / viability at 24 h, 20 µM: mean ± SD, n = 3
Procedure: as §1, §2, §3

Compound | Cell viability (%) J774 macrophages 10 μM (J774 macrophages) | Cell viability (%) J774 macrophages 20 μM (J774 macrophages) | IC50 (J774 macrophages) | Cell viability (%) H9c2 cardiomyocytes 10 μM (H9c2 cardiomyocytes) | Cell viability (%) H9c2 cardiomyocytes 20 μM (H9c2 cardiomyocytes) | IC50 (H9c2 cardiomyocytes) | Effect on antitumor (chemotherapeutic) activity of DOX [1] | ROS production on co-treatment with DOX (ROS in H9c2 cells) | IC50 at 24 h [2] | viability at 24 h, 10 µM [2] | viability at 24 h, 20 µM [2] | IC50 at 24 h [3] | viability at 24 h, 10 µM [3] | viability at 24 h, 20 µM [3] | melting point | IC50 (H9c2 cardiomyocytes; Rattus norvegicus, H9c2 cardiomyocytes, 24 h, MTT, read-out: IC50 (loss in cell viability, DOX-treated vs untreated cells)) | Levels of ROS compared to untreated cells (ROS in H9c2 cells; DOX 1 μM alone)
2-Hydroxy-7-methoxy-9-(4-nitrophenyl)-3-undecylacridine-1,4-dione [Compound 6k] | 81.9 ± 4.6 ^e % | 76.3 ± 5.3 ^e % | > 40 µM | 99.2 ± 0.8% | 94.4 ± 6.3% | > 40 µM | without reducing DOX’s chemotherapeutic effect | significantly inhibited ROS production | – | – | – | – | – | – | – | – | –
CCCCCCCCCCCC1=C(O)C(=O)C2=C(Nc3ccccc3C2c2ccc(C)c(C)c2)C1=O (stereo not shown) [Compound 4i, 2-Hydroxy-9-(3,4-dimethylphenyl)-3-undecyl-9,10-dihydroacridine-1,4-dione] | – | – | – | – | – | – | without reducing DOX’s chemotherapeutic effect | significantly inhibited ROS production | > 40 µM | 96.2 ± 6.8% | 72.6 ± 1.7% | > 40 µM | 84.3 ± 6.8% | 82.2 ± 6.2% | 106 to 108 °C | – | –
CCCCCCCCCCCC1=C(O)C(=O)C2=C(Nc3cc(C)cc(C)c3C2c2ccc([N+](=O)[O-])cc2)C1=O (stereo not shown) [Compound 4l, 2-Hydroxy-6,8-dimethyl-9-(4-nitrophenyl)-3-undecyl-9,10-dihydroacridine-1,4-dione] | – | – | – | – | – | – | – | – | – | 46.7 ± 6.6% | 33.1 ± 4.5% | – | 98.2 ± 6.6% | 88.3 ± 6.1% | 260 to 262 °C | – | –
CCCCCCCCCCCC1=C(O)C(=O)C2=C(Nc3ccc(Br)cc3C2c2ccc([N+](=O)[O-])cc2)C1=O (stereo not shown) [Compound 4m, 7-Bromo-2-hydroxy-9-(4-nitrophenyl)-3-undecyl-9,10-dihydroacridine-1,4-dione] | – | – | – | – | – | – | – | – | > 40 µM | 94.7 ± 4.2% | 77.2 ± 4.9% | > 40 µM | 96.5 ± 5.5% | 96.2 ± 4.8% | 236 to 237 °C | – | –
CCCCCCCCCCCC1=C(O)C(=O)c2c(nc3ccccc3c2-c2ccc([N+](=O)[O-])cc2)C1=O [Compound 6a, 2-Hydroxy-9-(4-nitrophenyl)-3-undecylacridine-1,4-dione] | – | – | – | – | – | – | without reducing DOX’s chemotherapeutic effect | significantly inhibited ROS production | > 40 µM | 96.3 ± 2.1% | 76.9 ± 2.8% | > 40 µM | 97.6 ± 7% | 87.8 ± 6.9% | – | – | –
CCCCCCCCCCCC1=C(O)C(=O)c2c(nc3ccccc3c2-c2ccc(Br)cc2)C1=O [Compound 6d, 2-Hydroxy-9-(4-bromophenyl)-3-undecylacridine-1,4-dione] | – | – | – | – | – | – | without reducing DOX’s chemotherapeutic effect | significantly inhibited ROS production | > 40 µM | 82.1 ± 3.7% | 74.5 ± 3.9% | > 40 µM | 99.4 ± 0.2% | 99.3 ± 2.6% | – | – | –
CCCCCCCCCCCC1=C(O)C(=O)c2c(nc3ccc(Br)cc3c2-c2ccc([N+](=O)[O-])cc2)C1=O [Compound 6m, 7-Bromo-2-hydroxy-9-(4-nitrophenyl)-3-undecylacridine-1,4-dione] | – | – | – | – | – | – | without reducing DOX’s chemotherapeutic effect | significantly inhibited ROS production | > 40 µM | 99.6 ± 4.6% | 86.4 ± 8.7% | > 40 µM | 89.8 ± 7.6% | 85.9 ± 8.2% | – | – | –
COc1cccc2c1C(=O)c1c(O)c3c(c(O)c1C2=O)C[C@@](O)(C(=O)CO)C[C@@H]3O[C@H]1C[C@H](N)[C@H](O)[C@H](C)O1 [DOX, Doxorubicin, reference compound] | – | – | – | – | – | – | – | – | – | – | – | – | – | – | – | 0.83 µM | significantly increased the levels of ROS
